One series relates to opioid receptors. Particulars: guinea pig small intestine, via opioid receptors; cited from earlier work.
The test system of a further series is mice. Particulars: subcutaneous or oral administration, tail-flick test or hot-plate test; cited from earlier work. For orientation: Thermal pain tests record how soon the animal reacts.
A further series addresses T1, human μ-opioid receptors (Homo sapiens, UniProt P35372).
T1 construct: purchased PerkinElmer; host or cells: CHO-K1 cells (membrane fraction)
The series is described as follows: Human μ-opioid receptor binding test with [3H]-DAMGO. The settings on record: for Ki: [3H]-DAMGO 1 nM, CHO-K1 membrane fraction expressing human μ-opioid receptor, read-out: hMOR binding Ki. The procedure:
The binding of each of MGM-30 and MGM-29 to human μ-opioid receptors was evaluated through use of a μ-opioid receptor ligand DAMGO ([D-Ala(2), N-Me-Phe(4), Gly-ol(5)] enkephalin acetate salt). MGM-9 was used as a sample for comparison and evaluated by the same method.
A cell membrane fraction of CHO-K1 cells expressing human μ-opioid receptor gene (manufactured by PerkinElmer) was used as a reagent. The human μ-opioid receptor-expressing cell membrane fraction was diluted to 1 mg/mL or 100 μg/mL with 50 mM Tris-HCl (pH 7.4), and then 1 mL of the dilution was dispensed in each of screw-capped vials, cryopreserved at −80° C., and dissolved before use. DAMGO was prepared at 1 mM with dimethylsulfoxide (hereinafter abbreviated as DMSO), and then dispensed in each of screw-capped vials, cryopreserved at −20° C., and dissolved before use.
A human μ-opioid receptor binding test was performed through use of the human μ-opioid receptor-expressing cell membrane fraction and [^3H]-labeled DAMGO (DAMGO, [TYROSYL-3,5-3H], manufactured by PerkinElmer: hereinafter referred to as [^3H]-DAMGO). Specifically, 10 μL of [^3H]-DAMGO (final concentration: 1 nM) diluted to 50 nM with 50% ethanol was added to 10 μL of a test compound solution obtained by diluting each of MGM-30, MGM-29, and MGM-9 with DMSO so as to have a final concentration of from 0.1 nM to 10,000 nM. 480 μL of the μ-opioid receptor-expressing cell membrane fraction diluted to 40 μg/mL with binding assay buffer (10 mM MgCl2, 50 mM Tris-HCl, 0.2% BSA, pH 7.4) was further added, followed by mixing, and the mixture was then subjected to a reaction at 27° C. for 2 hours. The same tests were performed for measurement of total binding activity by using 10 μL of DMSO in place of the test compound, and for measurement of μ-opioid receptor non-specific binding activity by using 10 μL of 1 mM DAMGO (final concentration: 20 μM) in place of the test compound. The binding reaction was terminated by suction filtration with a GF/C filter (manufactured by Whatman) preimmersed in 0.5% polyethylene imine. The filter was washed four times with 2.5 mL of a washing buffer (10 mM Tris-HCl, pH 7.4), and radioactivity remaining in the filter was measured. Then, a dissociation constant (Kd value) of [^3H]-DAMGO for the μ-opioid receptor-expressing cell membrane fraction was calculated by Scatchard plot analysis.
IC50 value was calculated, which is a test compound concentration at which the specific binding of [^3H]-DAMGO to human μ-opioid receptors was inhibited by 50%, by using analysis software XLfit™ ([…]). Then, an inhibition constant (Ki value) was calculated using the following equation: Ki=IC50/(1+S), S=(Concentration of [^3H]-DAMGO/Kd of [^3H]-DAMGO).

Series [1] is described as follows: Metabolic stability test, rat liver microsome. The format is in vitro ADME. The settings on record: rat liver microsomal fraction, 37° C., 30 minutes, NADPH. The source says: (§1) Liver microsome was used and subjected to a reaction with MGM-30 or MGM-29 for a predetermined time. A sample subjected to the reaction was compared to a sample not subjected to the reaction to calculate a residual ratio for evaluating a degree of a compound that was metabolized in liver. MGM-9 was used as a sample for comparison and evaluated by the same method.
(§2) Commercially available pooled human liver microsome (manufactured by Xenotech) was used as human liver microsome. Pooled rat liver microsome prepared from rat liver by a method known per se was used as rat liver microsome.
(§3) A metabolic stability test was specifically performed as described below. First, a test compound was subjected to a reaction (oxidative reaction) at 37° C. for 0 minutes or 30 minutes in 0.2 mL of a buffer (50 mmol/L tris-HCl pH 7.4, 150 mmol/L potassium chloride, 10 mmol/L magnesium chloride) containing 0.5 mg protein/mL of liver microsome in the presence of 1 mmol/L nicotinamide adenine dinucleotide phosphate (hereinafter abbreviated as NADPH). After the reaction, 50 μL of the reaction liquid was added to 100 μL of a solution of methanol/acetonitrile=1/1 (volume/volume: hereinafter abbreviated as v/v), followed by mixing and centrifugation at 3,000 rpm for 15 minutes. The test compound in the centrifugation supernatant was quantified by liquid chromatograph/tandem mass spectrometry (LC/MS/MS). Then, the amount of the compound at the start of the reaction was defined as 100%, and the residual ratio of the test compound after the reaction was calculated. A hydrolysis reaction was performed in the absence of NADPH, and a glucuronidation reaction was performed in the presence of 5 mM UDP-glucuronic acid in place of NADPH. Then, the same operation was performed.
On the technique in general: Liver microsomes are a subcellular fraction often used to study metabolism.

The nature of series [2]: Metabolic stability test, human liver microsome. It counts as in vitro ADME. Particulars: for Metabolic stability Ms human (% remaining): human liver microsomal fraction, 37° C., 30 minutes, NADPH; for metabolic stability compared to formula (III), in words: in vitro metabolic stability test using liver microsome.
From the text: as §1, §2, §3

A further series concerns ddY strain mice. The series is described as follows: Mouse tail-flick test, subcutaneous administration. The format is in vivo. Particulars: for analgesic action in words: s.c., 0.3, 1 and 3 mg/kg; for time after administration at which the analgesic action returned to the vehicle level: any of the doses. The procedure:
The results of the test are represented by dose-response curves. […] In addition, a similar test was performed by using a vehicle as a negative control. The analgesic action of each compound was quantified by using a percentage of maximum possible effect (% MPE). % MPE was calculated from the following equation: % MPE=[(Post-drug latency−Pre-drug latency)/(Cut-off time−Pre-drug latency)]×100. The abscissa axis of FIG. 1 indicates a time after the administration of each compound (time after injection (min)).
Six-week-old male ddY strain mice (Japan SLC, Inc.) were used.
MGM-30 and MGM-29 were each dissolved in 25 mM phosphate buffer (pH 5.3 to 5.5). MGM-9, which was a known mitragynine derivative compound, was used as a sample for comparison. MGM-9 was obtained by synthesis according to a method similar to a method described in each of the previous reports (Patent Literatures 2 and 3 and Non Patent Literature 3).
A tail-flick test is a method of evaluating the analgesic effect of a compound, which comprises applying a nociceptive stimulus, for example, a heat stimulus, to the tail of a mouse, and then using as an indicator flight response elicited by the stimulus. Since a mouse respond to the heat stimulus by flicking or moving its tail out of the path of the stimulus, the tail is exposed to a photocell located in a tail-flick analgesia meter (Ugo Basile Tail-flick Unit 7360, Ugo Basile) immediately below the tail. A reaction time is automatically recorded.
Before treatment with the compounds, the vehicle, or physiological saline, a nociceptive threshold was measured three times, and the mean of the reaction time was used as a pre-drug latency for each mouse. The intensity of the heat stimulus was adjusted to such an intensity that mice flicked the tail upward within from 2 seconds to 4 seconds, and a time for heat treatment was set to a maximum stimulation time (cut-off time) of 10 seconds in order to prevent tissue damage. Each of the compounds was subcutaneously administered to mice in a volume of 10 mL/kg with doses 0.3 mg/kg, 1 mg/kg, and 3 mg/kg. A latency after the administration (post-drug latency) was measured 15 minutes, 30 minutes, 45 minutes, 60 minutes, 90 minutes, 120 minutes, and 180 minutes after the administration. The vehicle used for diluting the compounds was used as a control in place of the compounds, and was administered in the same volume. The analgesic action of each compound was quantified through use of a ratio to the maximum drug efficacy, i.e., a percentage of maximum possible effect (hereinafter abbreviated as % MPE) % MPE was calculated from the following equation: % MPE=[(Post-drug latency−Pre-drug latency)/(Cut-off time−Pre-drug latency)]×100. Each value is expressed as the mean of data obtained from six mice±standard error.
Data was expressed as the mean±standard error. Statistical analyses were performed by the two-tailed Student's t test for comparison of two groups and by a one-way analysis of variance followed by a Bonferroni multiple-comparison test for comparison of more than two groups. A P value of <0.05 was considered statistically significant.

For series [3], the target named is hMOR (human μ-opioid receptors) (Homo sapiens, UniProt P35372). The series is described as follows: hMOR agonist activity (% DAMGO). It counts as biochemical.
Sequence of hMOR (human μ-opioid receptors) (P35372 whole entry): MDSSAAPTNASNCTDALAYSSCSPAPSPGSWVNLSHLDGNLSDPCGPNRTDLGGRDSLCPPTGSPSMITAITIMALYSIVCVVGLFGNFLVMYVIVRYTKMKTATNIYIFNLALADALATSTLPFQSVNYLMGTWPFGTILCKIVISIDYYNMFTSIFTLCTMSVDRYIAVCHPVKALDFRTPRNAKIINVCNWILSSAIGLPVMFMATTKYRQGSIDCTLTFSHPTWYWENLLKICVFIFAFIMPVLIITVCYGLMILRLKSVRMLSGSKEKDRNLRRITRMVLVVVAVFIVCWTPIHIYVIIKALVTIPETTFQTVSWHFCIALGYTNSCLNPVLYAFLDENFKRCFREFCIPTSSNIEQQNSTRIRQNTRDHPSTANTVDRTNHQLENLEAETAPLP
Where [4] appears, read: 3 mg/kg s.c., 15 minutes after administration.
Setting [5] is: 3 mg/kg s.c., 15 minutes to 60 minutes after administration.

“Also recorded” adds a separate entry of the source. Where two headings read alike, the source gives them in different places.

T1 sequence (P35372 whole entry): as above

`CC[C@@H]1CN2CC[C@@]3(O)C(=Nc4cccc(OC)c43)[C@@H]2C[C@@H]1/C(=C\OC)C(=O)OC` [7-hydroxymitragynine]: the “effect on contraction induced by electrical stimulation” value in the series with opioid receptors is “inhibited contraction induced by electrical stimulation”. Also, the antinociceptive action result with mice is on record as “remarkable antinociceptive action”.

Turning to `CC[C@@H]1CN2CC[C@@]34OCCO[C@@]3(Nc3ccc(F)c(OC)c34)[C@@H]2C[C@@H]1/C(=C\OC)C(=O)OC` [MGM-9, reference compound], at human μ-opioid receptors, the Ki (as a rule, a measure of affinity in units of concentration, obtained from inhibition or displacement) was found to be 3.5 nM. Further, the “Metabolic stability Ms rat (% remaining)” value in series [1] is reported as 3 % remaining. Moreover, the “Metabolic stability Ms human (% remaining)” value in series [2] is given as 57 % remaining. Moreover, the “analgesic action (% MPE)” value in the series on ddY strain mice (1 mg/kg s.c., 15 minutes after administration) is listed as 100%; in the series on ddY strain mice (setting [4]), 100%; with ddY strain mice (setting [5]), 100%. For the same compound, the “time after administration until which the analgesic action was sustained” value in the series with ddY strain mice (3 mg/kg s.c.) is 120 min. Besides, the “time after administration at which the maximum analgesic action was expressed” value in the series with ddY strain mice (s.c.) turned out to be 15 min. Moreover, the “analgesic action in words” value in the series on ddY strain mice is reported as “dose-dependent analgesic action”. Moreover, in the series on ddY strain mice (s.c.), the “time after administration at which the analgesic action returned to the vehicle level” value was “One hundred and eighty”. For the same compound, the “hMOR agonist (% DAMGO)” value in series [3] is on record as 49.0 % DAMGO.

As for `CC[C@@H]1CN2CC[C@@]34OCCC[C@@]3(Nc3cccc(OC)c34)[C@@H]2C[C@@H]1/C(=C\OC)C(=O)OC` [MGM-29], the “binding affinity for human μ-opioid receptors relative to MGM-9 (formula (III)), in words” value was “comparable to that of MGM-9” on human μ-opioid receptors and “comparable to that of the compound represented by the formula (III)” at human μ-opioid receptors (listed as formula (II)). Further, the Ki on human μ-opioid receptors stood at 4.9 nM. For the same compound, the “Metabolic stability Ms rat (% remaining)” value in series [1] turned out to be 36 % remaining. In addition, in series [2], the “Metabolic stability Ms human (% remaining)” value worked out at 78 % remaining. For the same compound, the “metabolic stability compared to formula (III), in words” value in series [2] is given as “remarkably high metabolic stability”. Besides, in the series on ddY strain mice (setting [4]), the “analgesic action (% MPE)” value is reported as “about 20%”. The “analgesic action in words” value in the series on ddY strain mice is reported as “limited analgesic action; also recorded: dose-dependent analgesic action”; in the series on ddY strain mice (listed as formula (II)), “exhibited an analgesic action, although the action was determinative”. Besides, the “hMOR agonist (% DAMGO)” value in series [3] worked out at 45.9 % DAMGO.

Take `CC[C@@H]1CN2CC[C@@]34OCC[C@@]3(Nc3cccc(OC)c34)[C@@H]2C[C@@H]1/C(=C\OC)C(=O)OC` [MGM-30]: on human μ-opioid receptors, the “binding affinity for human μ-opioid receptors relative to MGM-9 (formula (III))” value is recorded as “about 30 fold” and the inhibition constant (Ki) stood at 0.12 nM. Also, the “Metabolic stability Ms rat (% remaining)” value in series [1] is given as 43 % remaining. Also, in series [2], the “Metabolic stability Ms human (% remaining)” value stood at 92 % remaining and the “metabolic stability compared to formula (III), in words” value is reported as “remarkably high metabolic stability”. The “analgesic action (% MPE)” value with ddY strain mice (0.3 mg/kg s.c., 15 minutes to 30 minutes after administration) is reported as “about 95%”. For the same compound, in the series with ddY strain mice (1 mg/kg and 3 mg/kg s.c.), the “time after administration until which the analgesic action was sustained” value was 90 min. In the series with ddY strain mice (1 mg/kg s.c., 15 minutes to 60 minutes after administration), the “analgesic action (% MPE)” value was determined as 100%. Further, the “analgesic action (% MPE)” value in the series with ddY strain mice (setting [5]) is given as 100%. Also, in the series on ddY strain mice (s.c.), the “analgesic action relative to the compound of formula (III) (MGM-9)” value is listed as “approximately 3 fold”, the “time after administration at which the maximum analgesic action was expressed” value was determined as 15 min and the “time after administration at which the analgesic action returned to the vehicle level” value amounted to 180 min. In addition, the “analgesic action in words” value in the series with ddY strain mice was “dose-dependent analgesic action; also recorded: most potent analgesic action and had the longest duration of action”. Further, in the series on ddY strain mice (listed as formula (I)), the “analgesic action in words” value is recorded as “potent analgesic action in a dose-dependent manner”. Also, the “hMOR agonist (% DAMGO)” value in series [3] turned out to be 46.2 % DAMGO.

The values are drawn from patent publication US9957262B2, “Opioid analgesic” (NATIONAL UNIVERSITY CORPORATION CHIBA UNIVERSITY, priority 2013, dated 2018).
